The values that follow come from US12233073B2, “Skin care formulations and skin cancer treatment” (Regents of the University of Minnesota, priority 2017, dated 2025).

Where only a bound is given, the exact number is not on record here.

For the first test, the system named is elastin. The experiment in a line: Induction of elastin. In kind it is cell-based. The settings on record: final dose 10 μg/ml. The method, then: (§1) Higher elastin and collagen activity is indicative of anti-wrinkling or anti-aging effects. Activation of the antioxidant response element (ARE) pathway was also evaluated. The NF-E2-related factor (Nrf2) is a critical transcription factor in oxidative stress signaling. Nrf2 binds to the ARE and serves as a master regulator in cellular defense pathways. The ARE pathway mediates the transcriptional induction of a battery of genes that help to protect the cells against oxidative damage. Activation of the ARE promoter leads to more endogenous antioxidants and cell detoxification.
Take `O=C(/C=C/c1ccc(O)c(O)c1)OCCc1ccccc1` [HI-6, caffeic acid phenylethyl ester]: the fold induction at 10 µg/mL was less than 1.3.
Same read-out and setting: then `O=c1c(O)c(-c2ccc(O)cc2)oc2cc(O)ccc12` [HI-7, 3,7,4′-trihydroxyflavone], with 3; and `O=c1c(O)c(-c2cc(O)c(O)c(O)c2)oc2cc(O)cc(O)c12` [HI-8, myricetin], with less than 1.3; and `COc1cc(-c2oc3cc(O)cc(O)c3c(=O)c2O)ccc1O` [HI-10, isorhamnetin], with 1.7.

Still in this test, the particulars now being: final dose 50 μg/ml.
In the case of `O=C(/C=C/c1ccc(O)c(O)c1)OCCc1ccccc1` [HI-6, caffeic acid phenylethyl ester], the fold induction at 50 µg/mL is less than 1.3.
On the same count and under the same terms, then `O=c1c(O)c(-c2ccc(O)cc2)oc2cc(O)ccc12` [HI-7, 3,7,4′-trihydroxyflavone], with 2; and `O=c1c(O)c(-c2cc(O)c(O)c(O)c2)oc2cc(O)cc(O)c12` [HI-8, myricetin], with 3.
Still for that read-out and setting: the figure for `COc1cc(-c2oc3cc(O)cc(O)c3c(=O)c2O)ccc1O` [HI-10, isorhamnetin] is 1.8.

The same test, now with this note: final dose 100 μg/ml.
Take `O=C(/C=C/c1ccc(O)c(O)c1)OCCc1ccccc1` [HI-6, caffeic acid phenylethyl ester]: the fold induction at 100 µg/mL is 2.
The same measure, in the same setting: the figure for `O=c1c(O)c(-c2ccc(O)cc2)oc2cc(O)ccc12` [HI-7, 3,7,4′-trihydroxyflavone] is less than 1.3.
On the same count and under the same terms, the figure for `O=c1c(O)c(-c2cc(O)c(O)c(O)c2)oc2cc(O)cc(O)c12` [HI-8, myricetin] is 2.8.
Still for that read-out and setting: then `COc1cc(-c2oc3cc(O)cc(O)c3c(=O)c2O)ccc1O` [HI-10, isorhamnetin], with 4.

The test is the same for the next values; noted with them: first rating in cell.
For the compound `O=C(/C=C/c1ccc(O)c(O)c1)OCCc1ccccc1` [HI-6, caffeic acid phenylethyl ester], the “Rating (Elastin)” value is on record as “none, none, N/A”.
The same measure, in the same setting: then `O=c1c(O)c(-c2ccc(O)c(O)c2)oc2cc(O)c(O)c(O)c12` [HI-9, quercetagetin], with “none”.

For another test, the system named is UV-induced ROS. The experiment in a line: Inhibition of the production of UV-induced reactive oxygen species (ROS). Particulars: final dose 10 μg/ml; read-out: % inhibition of UV-induced ROS. The test is classed as cell-based. The method, then: The effect of the compounds of EXAMPLE 20 on inhibition of the production of reactive oxygen species (ROS), which can damage skin cells, was evaluated.
On to `O=c1c(O)c(-c2ccc(O)cc2)oc2cc(O)ccc12` [HI-7, 3,7,4′-trihydroxyflavone], for which the inhibition at 10 µg/mL is approximately 50%.
The same measure, in the same setting: the figure for `O=c1c(O)c(-c2cc(O)c(O)c(O)c2)oc2cc(O)cc(O)c12` [HI-8, myricetin] is more than 70%; for `COc1cc(-c2oc3cc(O)cc(O)c3c(=O)c2O)ccc1O` [HI-10, isorhamnetin] it is approximately 50%.

The same test, now with this note: read-out: % inhibition of UV-induced ROS.
`O=C(/C=C/c1ccc(O)c(O)c1)OCCc1ccccc1` [HI-6, caffeic acid phenylethyl ester]: the inhibition at 10 µg/mL is more than 70%.
Same read-out and setting: the figure for `O=c1c(O)c(-c2ccc(O)c(O)c2)oc2cc(O)c(O)c(O)c12` [HI-9, quercetagetin] is more than 70%.

A further test deals with collagen 1A. The experiment in a line: Induction of collagen 1A. In kind it is cell-based. The settings on record: final dose 10 μg/ml. How it is done: as §1
The compound `O=C(/C=C/c1ccc(O)c(O)c1)OCCc1ccccc1` [HI-6, caffeic acid phenylethyl ester] had a fold induction at 10 µg/mL of less than 1.3.
Compound `O=c1c(O)c(-c2ccc(O)cc2)oc2cc(O)ccc12` [HI-7, 3,7,4′-trihydroxyflavone] returned a fold induction at 10 µg/mL of 3.
Still for that read-out and setting: then `O=c1c(O)c(-c2cc(O)c(O)c(O)c2)oc2cc(O)cc(O)c12` [HI-8, myricetin], with less than 1.3; and `COc1cc(-c2oc3cc(O)cc(O)c3c(=O)c2O)ccc1O` [HI-10, isorhamnetin], with 1.4.

Still in this test, the particulars now being: final dose 50 μg/ml.
With `O=C(/C=C/c1ccc(O)c(O)c1)OCCc1ccccc1` [HI-6, caffeic acid phenylethyl ester], the fold induction at 50 µg/mL was less than 1.3.
Still for that read-out and setting: the figure for `O=c1c(O)c(-c2ccc(O)cc2)oc2cc(O)ccc12` [HI-7, 3,7,4′-trihydroxyflavone] is less than 1.3; for `O=c1c(O)c(-c2cc(O)c(O)c(O)c2)oc2cc(O)cc(O)c12` [HI-8, myricetin] it is less than 1.3.
On to `COc1cc(-c2oc3cc(O)cc(O)c3c(=O)c2O)ccc1O` [HI-10, isorhamnetin], for which the fold induction at 50 µg/mL was less than 1.3.

Staying with this test, now noted: final dose 100 μg/ml.
In turn, `O=C(/C=C/c1ccc(O)c(O)c1)OCCc1ccccc1` [HI-6, caffeic acid phenylethyl ester] gave a fold induction at 100 µg/mL of less than 1.3.
`O=c1c(O)c(-c2ccc(O)cc2)oc2cc(O)ccc12` [HI-7, 3,7,4′-trihydroxyflavone] came in with a fold induction at 100 µg/mL of less than 1.3.
On the same count and under the same terms, then `O=c1c(O)c(-c2cc(O)c(O)c(O)c2)oc2cc(O)cc(O)c12` [HI-8, myricetin], with less than 1.3.
Same read-out and setting: then `COc1cc(-c2oc3cc(O)cc(O)c3c(=O)c2O)ccc1O` [HI-10, isorhamnetin], with less than 1.3.

Staying with this test, now noted: second rating in cell.
As to `O=C(/C=C/c1ccc(O)c(O)c1)OCCc1ccccc1` [HI-6, caffeic acid phenylethyl ester], the “Rating (Collagen 1A)” value was “none, none, N/A”.
On the same count and under the same terms, then `O=c1c(O)c(-c2ccc(O)cc2)oc2cc(O)ccc12` [HI-7, 3,7,4′-trihydroxyflavone], with “****, ****, **** (very high activity (>76%))”; and `O=c1c(O)c(-c2cc(O)c(O)c(O)c2)oc2cc(O)cc(O)c12` [HI-8, myricetin], with “none”.
On the same count and under the same terms, then `O=c1c(O)c(-c2ccc(O)c(O)c2)oc2cc(O)c(O)c(O)c12` [HI-9, quercetagetin], with “*** (high activity (56-75%))”; and `COc1cc(-c2oc3cc(O)cc(O)c3c(=O)c2O)ccc1O` [HI-10, isorhamnetin], with “** (medium activity (31-55%))”.

For a further test, the system named is nuclear factor kappa B (NF-κB) pathway. The test is described as follows: Cell-based assay of the nuclear factor kappa B (NF-κB) pathway. Particulars: final dose 10 μg/ml. The method, then: The effect of adding anti-aging and/or anti-wrinkling compounds to the skin care formulation of EXAMPLE 18 on nuclear factor kappa B (NF-κB) mediated-inflammation was evaluated.
A cell-based assay was performed to determine the effective of each of these compounds. The assay involved the effect of each compound on the nuclear factor kappa B (NF-κB) pathway. The inhibition of NF-κB is indicative of a protective effect against aging and wrinkling.
On to `O=c1c(O)c(-c2cc(O)c(O)c(O)c2)oc2cc(O)cc(O)c12` [HI-8, myricetin], for which the “% inhibition of NF-κB” value is listed as “none”.
On the same count and under the same terms, then `O=c1c(O)c(-c2ccc(O)c(O)c2)oc2cc(O)c(O)c(O)c12` [HI-9, quercetagetin], with “none”.

The test is the same for the next values; noted with them: final dose 10 μg/ml; read-out: % inhibition of NF-κB.
As for `O=c1c(O)c(-c2ccc(O)cc2)oc2cc(O)ccc12` [HI-7, 3,7,4′-trihydroxyflavone], the inhibition at 10 µg/mL came out at 9%.

Still in this test, the particulars now being: final dose 50 μg/ml.
For `O=c1c(O)c(-c2ccc(O)c(O)c2)oc2cc(O)c(O)c(O)c12` [HI-9, quercetagetin], the “% inhibition of NF-κB” value is on record as “none”.

Still in this test, the particulars now being: final dose 50 μg/ml; read-out: % inhibition of NF-κB.
On to `O=c1c(O)c(-c2ccc(O)cc2)oc2cc(O)ccc12` [HI-7, 3,7,4′-trihydroxyflavone], for which the inhibition at 50 µg/mL was 52%.
The same measure, in the same setting: then `O=c1c(O)c(-c2cc(O)c(O)c(O)c2)oc2cc(O)cc(O)c12` [HI-8, myricetin], with 39%.

Staying with this test, now noted: final dose 100 μg/ml; read-out: % inhibition of NF-κB.
On to `O=c1c(O)c(-c2ccc(O)cc2)oc2cc(O)ccc12` [HI-7, 3,7,4′-trihydroxyflavone], for which the inhibition at 100 µg/mL was found to be 66%.
Still for that read-out and setting: then `O=c1c(O)c(-c2cc(O)c(O)c(O)c2)oc2cc(O)cc(O)c12` [HI-8, myricetin], with 44%.

Still in this test, the particulars now being: one rating per compound.
With `O=C(/C=C/c1ccc(O)c(O)c1)OCCc1ccccc1` [HI-6, caffeic acid phenylethyl ester], the “Rating (inhibition of NF-κB)” value is “*** (high activity (56-75%))”.
Still for that read-out and setting: then `O=c1c(O)c(-c2ccc(O)cc2)oc2cc(O)ccc12` [HI-7, 3,7,4′-trihydroxyflavone], with “none”; and `O=c1c(O)c(-c2cc(O)c(O)c(O)c2)oc2cc(O)cc(O)c12` [HI-8, myricetin], with “none”.
Take `O=c1c(O)c(-c2ccc(O)c(O)c2)oc2cc(O)c(O)c(O)c12` [HI-9, quercetagetin]: the “Rating (inhibition of NF-κB)” value is “none and ** (medium activity (31-55%))”.

Still in this test, the particulars now being: read-out: % inhibition of NF-κB.
Consider `O=C(/C=C/c1ccc(O)c(O)c1)OCCc1ccccc1` [HI-6, caffeic acid phenylethyl ester], for which the inhibition at 10 µg/mL was determined as 64%, the inhibition at 50 µg/mL was more than 90% and the inhibition at 100 µg/mL is more than 90%.
In the case of `O=c1c(O)c(-c2ccc(O)c(O)c2)oc2cc(O)c(O)c(O)c12` [HI-9, quercetagetin], the inhibition at 100 µg/mL came to 20%.
On to `COc1cc(-c2oc3cc(O)cc(O)c3c(=O)c2O)ccc1O` [HI-10, isorhamnetin], for which the inhibition at 10 µg/mL is 45%, the inhibition at 50 µg/mL came to 52% and the inhibition at 100 µg/mL came out at 43%.

In another test the test system is antioxidant response element (ARE) pathway. The test is described as follows: Activation of the antioxidant response element (ARE) pathway. The test is classed as cell-based. Particulars: final dose 10 μg/ml. The method, then: as §1
For `O=C(/C=C/c1ccc(O)c(O)c1)OCCc1ccccc1` [HI-6, caffeic acid phenylethyl ester], the fold induction at 10 µg/mL was less than 1.3.
The same measure, in the same setting: the figure for `O=c1c(O)c(-c2ccc(O)cc2)oc2cc(O)ccc12` [HI-7, 3,7,4′-trihydroxyflavone] is 2.
In turn, `O=c1c(O)c(-c2cc(O)c(O)c(O)c2)oc2cc(O)cc(O)c12` [HI-8, myricetin] displayed a fold induction at 10 µg/mL of less than 1.3.
Same read-out and setting: the figure for `COc1cc(-c2oc3cc(O)cc(O)c3c(=O)c2O)ccc1O` [HI-10, isorhamnetin] is 2.

Still in this test, the particulars now being: final dose 50 μg/ml.
The compound `O=C(/C=C/c1ccc(O)c(O)c1)OCCc1ccccc1` [HI-6, caffeic acid phenylethyl ester] gave a fold induction at 50 µg/mL of less than 1.3.
Compound `O=c1c(O)c(-c2ccc(O)cc2)oc2cc(O)ccc12` [HI-7, 3,7,4′-trihydroxyflavone] came in with a fold induction at 50 µg/mL of 1.5.
The same measure, in the same setting: then `O=c1c(O)c(-c2cc(O)c(O)c(O)c2)oc2cc(O)cc(O)c12` [HI-8, myricetin], with less than 1.3.
Still for that read-out and setting: the figure for `COc1cc(-c2oc3cc(O)cc(O)c3c(=O)c2O)ccc1O` [HI-10, isorhamnetin] is less than 1.3.

Still in this test, the particulars now being: final dose 100 μg/ml.
`O=C(/C=C/c1ccc(O)c(O)c1)OCCc1ccccc1` [HI-6, caffeic acid phenylethyl ester]: the fold induction at 100 µg/mL is less than 1.3.
The same measure, in the same setting: the figure for `O=c1c(O)c(-c2ccc(O)cc2)oc2cc(O)ccc12` [HI-7, 3,7,4′-trihydroxyflavone] is less than 1.3; for `O=c1c(O)c(-c2cc(O)c(O)c(O)c2)oc2cc(O)cc(O)c12` [HI-8, myricetin] it is less than 1.3.
As for `COc1cc(-c2oc3cc(O)cc(O)c3c(=O)c2O)ccc1O` [HI-10, isorhamnetin], the fold induction at 100 µg/mL is less than 1.3.

Still in this test, the particulars now being: third rating in cell.
On to `O=c1c(O)c(-c2ccc(O)cc2)oc2cc(O)ccc12` [HI-7, 3,7,4′-trihydroxyflavone], for which the “Rating (ARE)” value is reported as “****, ****, **** (very high activity (>76%))”.
The same measure, in the same setting: the entry for `O=c1c(O)c(-c2cc(O)c(O)c(O)c2)oc2cc(O)cc(O)c12` [HI-8, myricetin] is “none”; for `O=c1c(O)c(-c2ccc(O)c(O)c2)oc2cc(O)c(O)c(O)c12` [HI-9, quercetagetin] it is “none”.
For the compound `COc1cc(-c2oc3cc(O)cc(O)c3c(=O)c2O)ccc1O` [HI-10, isorhamnetin], the “Rating (ARE)” value is “**** (very high activity (>76%))”.
